This is an account of results in ChEMBL document CHEMBL1158718, “4-Hydroxybenzoyl derivative from the aqueous extract of the hydroid Campanularia sp” (J Nat Prod, 2005).

Calls of active or inactive are those of the source. The calls are words filed in the database; no cut-off is given here.

Assay [1] has as its system ARP1. As to the kind of experiment: Induction of P21WAF1 gene expression in human ARP1 cells. Format: functional, cell-based.
Assay [2] has as its target Histone deacetylase (Homo sapiens) (UniProt Q13547+O15379+Q9UBN7+Q92769+Q9UQL6+Q8WUI4+Q9BY41+Q96DB2+P56524+Q9UKV0+Q969S8). As to the kind of experiment: Inhibition of HDAC in human ARP1 cells. Format: cell-based.
Assay [3] has as its system ARP1. As to the kind of experiment: Growth inhibition of human ARP1 cells up to 100 uM. Format: functional, cell-based.

For the molecule `O=C(CCCCCCC(=O)Nc1ccccc1)NO`, the outcome in the assay on ARP1 [1] was Active.

Consider `N=C(N)NCCCCNC(=O)C(=O)c1ccc(O)cc1`, for which the result (in assay [2]; in the assay on ARP1 [3]) was inactive.
